Experiments:
[1] = tested on: complex IV (cytochrome c oxidase); experiment: Complex IV activity of C2C12 myotubes; type: cell-based; settings: Mus musculus, C2C12, 72 h, 3 days, change vs control, trend p<0.07
Method: (§1) Mouse myoblasts of the C2C12 cell line (ATCC) were seeded at a plating density of 7000 cells/cm2 in 6-well plates. They were grown in DMEM high glucose (4.5g/l) supplemented with gentamycin (50 µg/mL), amphotericin (50 µg/mL), and fetal calf serum (10%). Terminal differentiation was induced at cell confluence by lowering the medium serum concentration (0.5%).
(§2) When indicated, FuFA-F2 was added to the culture medium at the indicated concentration. For the differentiation studies, FuFA-F2 was added at the confluence at the same time as the change in media condition. Three doses of FuFA-F2 were studied at a final concentration of 1, 10, or 50 µM. Human insulin was used at a concentration of 100 nM.
(§3) Mitochondrial respiratory complex activities were determined as previously described (Casas et al., 2008, PloS ONE, Vol. 3(6) : e2501). Citrate synthase (CS) activity was measured according to Srere (Srere et al., 1967, Science, Vol. 158(3803) : 936-937) by following the color formation of 5-thio-2-nitrobenzoic acid at 412 nm. The enzymatic activity of complex IV (cytochrome c oxidase) was measured according to Wharton and Tzagoloff (Wharton et al., 1967, Methods in Enzymology, Vol. 10, Edn Elsevier BV, Amsterdam, The Netherlands), a spectrophotometer following the oxidation of reduced cytochrome c at 550 nm, pH 7.4, and 37 °C. Cytochrome c was reduced with sodium dithionite. […]

[2] = tested on: myosin heavy chain (MyHC); experiment: Slow and fast MyHC protein levels by Western blot in C2C12 myotubes; type: cell-based, Mouse
Method: as §1, §2
(§4) Protein levels were assessed by Western blotting. Total proteins were measured using the Bio-Rad protein assay (Hercules, CA, USA) according to the manufacturer's instructions. Total proteins were lysed in RIPA buffer (20mM Tris, 150mM NaCl, 1mM EDTA, 1% NP40, pH 7.5 + complete cocktail protease inhibitors + Pierce phosphatase inhibitors tablet). 40 µg of cell extracts were loaded and blotted onto a nitrocellulose membrane. The membranes were washed, blocked with 5% nonfat milk and incubated in primary antibody overnight at 4°C. […]
(Figure 5A), commonly used as a quantitative marker of intact mitochondria. […]

[3] = tested on: complex IV; experiment: Mitochondrial complex IV activity in quadriceps of supplemented C57Bl6 mice; type: in vivo; settings: 20mg/kg oral gavage, vs control
Method: Male C57Bl/6J wild-type mice were obtained from Janvier at 12 weeks of age and were randomly assigned to one of the two groups based on body weight. Mice were housed 2 per cage and maintained on a 12-hour light/dark cycle (lights on at 7:30 pm). Food and water were provided ad libitum. Enrichment (nesting cotton squares) was provided in each cage. Mice were treated once daily by oral gavage with vehicle (50% PEG-400, 0.5% Tween 80, and 49.5% distilled water) or FuFA-F2 (20 mg/kg). All animal experiments were performed according to European directives (86/609/CEE and 2010/63/CEE) and approved by the regional animal experimentation ethics committe: Région Languedoc-Roussillon (No36). […]
as §3, with “°C.” for “°C. Cytochrome c was reduced with sodium dithionite.”

[4] = tested on: Akt (Ser473); experiment: Akt phosphorylation by Western blot in C2C12 myotubes; type: cell-based, Mouse; settings: FuFA-F2 together with insulin; 3-day pretreatment, 2 hours low-glucose, 30 minutes
Method: as §1, §2, §4

## CCCCCc1cc(C)c(CCCCCCCCC(=O)O)o1 [FuFA-F2]
[1]
  activation at 10 µM: 60%
[2]; 10 µM
  expression of slow MyHC: significantly increased
[2]; highest dose (50 µM)
  fast MyHC: decrease
[3]
  complex IV activity of mitochondrial respiratory chain complexes: significant increase
[4]
  insulin-induced phosphorylation of Akt: did not alter

Source: patent publication EP4385508A1, “FURAN FATTY ACIDS FOR ENHANCING MUSCLE MASS” (Centre de Coopération Internationale en Recherche …, priority 2022, dated 2024)
